The values that follow are results of earlier work, collected in patent US20200306231A1, “ORAL HYPOGLYCEMIC AGENTS AS FOOD ADDITIVES AND SUPPLEMENTS” (priority 2017, published 2020).

The conditions of series [1]: neoadjuvant chemotherapy; type 2 diabetes patients taking metformin.
The conditions of series [2]: another study.
The conditions of series [3]: type 2 diabetes patients followed for 10 years; taking metformin compared with not taking metformin.
Series [4] relates to nematodes.
In series [5] the test system is mouse model.
The conditions of series [6]: type 2 diabetes.
The conditions of series [7]: in vivo.
For series [8] the following is noted: type 2 diabetes population; compared with other anti-diabetes drugs.
For series [9] the following is noted: lung cancer after chemotherapy; type 2 diabetics taking metformin.
The conditions of series [10]: DPPOS.
For series [11] the following is noted: ovarian cancer after chemotherapy, type 2 diabetes.

With `CN(C)C(=N)N=C(N)N` [metformin], in [1], the “chance of having a complete response (no residual cancer found during surgery)” value is reported as 24%. In addition, the “improved survival with metformin use” value in series [2] was 24%. In addition, the “lower risk of developing any type of cancer” value in [3] is recorded as 54%. The lifespan result in [4] is “extends the lifespan”. Moreover, the “lifespan and health span” value in series [5] was “extends both lifespan and health span”. Further, the “risk reduction for developing prostate cancer” value (type 2 diabetics taking metformin compared with not taking) was “no risk reduction”. In addition, for the setting “type 2 diabetics who have prostate cancer”, the “overall survival rate greater, taking metformin versus not taking” value is listed as 45%. Besides, in [6], the “risk of developing colorectal cancer, greater for those not taking metformin versus those taking metformin” value is given as 200% and the “survival greater for those taking metformin versus not taking” value was 34%. In addition, the “side effect known to be caused” value in [7] is “diarrhea”. The “risk of cardiovascular disease” value in [8] is “decreased risk of cardiovascular disease”. Further, in series [9], the overall survival rate is reported as 20 months and the progression free survival is 8.4 months. Moreover, in series [10], the safety and tolerability result is “safe and well tolerated”; the weight loss entry was “moderate but durable weight loss”. The “5-year overall survival rate” value in series [11] (metformin users) is on record as 63%. In addition, the “progression free survival at 5 years” value in series [11] (taking metformin) is 51%.

Turning to `COc1ccc2cc3[n+](cc2c1OC)CCc1cc2c(cc1-3)OCO2` [berberine], the “side effect known to be caused” value in series [7] is reported as “constipation”.
